Test results taken from patent US20260092071A1, “COMPOUNDS AND COMPOSITIONS AS SMARCA2/4 DEGRADERS AND USES THEREOF” (REGENTS OF THE UNIVERSITY OF MICHIGAN, priority 2022, published 2026).
Read-outs that look alike come from different tables or passages of the source.

Columns and labels:
SMARCA4 = SMARCA4 (Homo sapiens, UniProt P51532); experiment: HiBiT assay for protein degradation, Hela SMARCA4-HiBiT cells (A series); assay type: cell-based; design: fuse HiBiT to the carboxy terminus of SMARCA2 (Promega CS302365) or SMARCA4 (Promega CS3023225); host or cells: HeLa (CRISPR/Cas9 HiBiT knock-in); conditions: for DC50: read-out: SMARC A4 Hela HiBit DC50
SMARCA4, sequence (P51532 whole entry): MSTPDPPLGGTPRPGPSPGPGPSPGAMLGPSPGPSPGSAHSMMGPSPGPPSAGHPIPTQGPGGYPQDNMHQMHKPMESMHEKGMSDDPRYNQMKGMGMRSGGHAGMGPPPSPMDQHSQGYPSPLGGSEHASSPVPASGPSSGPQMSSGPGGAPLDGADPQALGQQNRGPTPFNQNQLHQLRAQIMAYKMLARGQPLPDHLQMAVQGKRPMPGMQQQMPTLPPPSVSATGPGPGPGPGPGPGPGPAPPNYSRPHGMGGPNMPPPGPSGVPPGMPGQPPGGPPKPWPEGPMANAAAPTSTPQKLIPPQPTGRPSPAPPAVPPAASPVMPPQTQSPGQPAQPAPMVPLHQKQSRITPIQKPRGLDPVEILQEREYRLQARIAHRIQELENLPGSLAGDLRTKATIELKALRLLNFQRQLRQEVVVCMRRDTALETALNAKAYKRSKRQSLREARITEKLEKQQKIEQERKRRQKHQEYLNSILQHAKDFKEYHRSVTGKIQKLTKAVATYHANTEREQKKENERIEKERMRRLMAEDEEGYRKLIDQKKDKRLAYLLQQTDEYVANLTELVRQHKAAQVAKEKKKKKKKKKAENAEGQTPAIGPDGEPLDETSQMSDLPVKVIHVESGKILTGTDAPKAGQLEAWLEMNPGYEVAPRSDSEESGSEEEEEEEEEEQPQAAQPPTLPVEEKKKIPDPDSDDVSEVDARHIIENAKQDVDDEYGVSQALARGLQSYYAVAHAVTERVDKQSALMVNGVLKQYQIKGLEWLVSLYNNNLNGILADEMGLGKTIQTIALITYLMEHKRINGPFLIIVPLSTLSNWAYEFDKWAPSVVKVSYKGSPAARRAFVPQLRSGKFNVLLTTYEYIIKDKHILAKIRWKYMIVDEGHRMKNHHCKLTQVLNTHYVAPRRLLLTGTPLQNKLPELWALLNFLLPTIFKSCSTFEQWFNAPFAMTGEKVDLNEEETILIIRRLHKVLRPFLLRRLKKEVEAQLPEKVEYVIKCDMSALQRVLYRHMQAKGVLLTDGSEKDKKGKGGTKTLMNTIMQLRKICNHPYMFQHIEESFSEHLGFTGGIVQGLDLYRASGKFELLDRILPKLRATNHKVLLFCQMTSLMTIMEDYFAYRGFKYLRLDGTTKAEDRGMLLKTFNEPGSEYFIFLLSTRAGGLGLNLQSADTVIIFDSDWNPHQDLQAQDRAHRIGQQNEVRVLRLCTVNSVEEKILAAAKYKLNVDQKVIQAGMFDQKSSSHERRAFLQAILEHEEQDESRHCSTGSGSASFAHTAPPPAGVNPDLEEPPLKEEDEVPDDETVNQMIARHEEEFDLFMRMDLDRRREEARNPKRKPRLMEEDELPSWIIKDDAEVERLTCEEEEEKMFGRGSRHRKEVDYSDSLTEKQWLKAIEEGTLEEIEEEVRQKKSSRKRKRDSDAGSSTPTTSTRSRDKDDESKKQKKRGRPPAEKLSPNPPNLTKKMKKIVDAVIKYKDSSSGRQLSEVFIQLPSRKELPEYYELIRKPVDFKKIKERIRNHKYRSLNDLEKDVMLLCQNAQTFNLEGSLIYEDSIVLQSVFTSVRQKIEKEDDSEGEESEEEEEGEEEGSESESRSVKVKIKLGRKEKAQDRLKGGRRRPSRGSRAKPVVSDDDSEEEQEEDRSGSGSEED
Procedure: Hela cells were genetically modified via CRISPR/Cas9 to fuse HiBiT to the carboxy terminus of SMARCA2 (Promega CS302365) or SMARCA4 (Promega CS3023225). Cells were cultured in DMEM containing 10% FBS and 1% (Vol:Vol) penicillin-streptomycin. […] At the end of experiment, levels of SMARCA2 or SMARCA4 expression were assessed with Nano-Glo® HiBiT Lytic Detection Assay (Promega N3050). IC50 was obtained using the GraphPad Prism data analysis software.

SMARCA2 = SMARCA2 (Homo sapiens, UniProt P51531); experiment: HiBiT assay for protein degradation, Hela SMARCA2-HiBiT cells (A series); assay type: cell-based; design: Hela cells were genetically modified via CRISPR/Cas9 to fuse HiBiT to the carboxy terminus of SMARCA2; host or cells: HeLa (CRISPR/Cas9 HiBiT knock-in); conditions: for Dmax: read-out: SMARC A2 Hela HiBit Dmax (%); for DC50: read-out: SMARC A2 Hela HiBit DC50;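 for SMARC A2 Hela HiBit Dmax (%): 24 h compound treatment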
SMARCA2, sequence (P51531 whole entry): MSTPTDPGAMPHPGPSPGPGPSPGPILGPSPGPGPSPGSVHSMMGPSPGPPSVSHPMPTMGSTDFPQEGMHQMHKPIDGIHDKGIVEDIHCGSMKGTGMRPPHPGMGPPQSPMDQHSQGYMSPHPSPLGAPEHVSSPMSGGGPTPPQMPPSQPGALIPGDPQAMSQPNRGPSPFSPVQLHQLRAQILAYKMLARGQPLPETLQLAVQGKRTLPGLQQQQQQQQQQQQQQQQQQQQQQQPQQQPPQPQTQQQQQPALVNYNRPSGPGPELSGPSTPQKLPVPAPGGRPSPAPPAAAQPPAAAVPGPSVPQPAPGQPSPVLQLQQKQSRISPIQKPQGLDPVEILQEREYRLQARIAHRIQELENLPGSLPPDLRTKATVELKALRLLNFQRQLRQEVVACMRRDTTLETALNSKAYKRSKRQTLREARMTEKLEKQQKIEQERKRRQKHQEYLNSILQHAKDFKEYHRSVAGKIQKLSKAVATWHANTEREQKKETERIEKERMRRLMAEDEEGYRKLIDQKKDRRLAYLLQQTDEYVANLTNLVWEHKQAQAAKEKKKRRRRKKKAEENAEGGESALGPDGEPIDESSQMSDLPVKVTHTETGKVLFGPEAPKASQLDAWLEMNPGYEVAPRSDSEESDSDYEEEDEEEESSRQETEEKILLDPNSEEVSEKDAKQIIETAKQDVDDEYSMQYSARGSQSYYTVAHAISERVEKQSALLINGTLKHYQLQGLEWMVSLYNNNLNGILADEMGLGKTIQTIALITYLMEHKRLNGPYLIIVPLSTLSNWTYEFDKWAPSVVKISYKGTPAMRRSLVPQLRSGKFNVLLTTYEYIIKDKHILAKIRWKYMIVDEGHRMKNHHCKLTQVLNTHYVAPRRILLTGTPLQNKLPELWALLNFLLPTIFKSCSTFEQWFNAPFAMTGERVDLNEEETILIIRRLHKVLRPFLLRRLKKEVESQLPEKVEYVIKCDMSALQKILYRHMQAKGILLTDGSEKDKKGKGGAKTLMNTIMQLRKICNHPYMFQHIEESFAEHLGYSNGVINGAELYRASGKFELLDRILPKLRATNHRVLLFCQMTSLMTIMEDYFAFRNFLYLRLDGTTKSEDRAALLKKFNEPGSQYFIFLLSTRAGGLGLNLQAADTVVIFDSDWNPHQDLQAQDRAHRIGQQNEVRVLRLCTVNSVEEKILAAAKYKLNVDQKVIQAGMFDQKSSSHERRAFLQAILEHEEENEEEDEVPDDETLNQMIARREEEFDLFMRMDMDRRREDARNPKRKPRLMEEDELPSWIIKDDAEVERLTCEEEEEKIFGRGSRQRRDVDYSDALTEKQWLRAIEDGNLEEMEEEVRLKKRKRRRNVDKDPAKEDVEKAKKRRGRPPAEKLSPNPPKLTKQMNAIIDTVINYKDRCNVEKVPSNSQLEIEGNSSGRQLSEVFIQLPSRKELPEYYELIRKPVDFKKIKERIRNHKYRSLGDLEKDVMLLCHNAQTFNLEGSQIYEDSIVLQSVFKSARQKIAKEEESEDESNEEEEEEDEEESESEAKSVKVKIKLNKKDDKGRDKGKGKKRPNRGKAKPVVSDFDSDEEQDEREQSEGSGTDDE
Procedure, shortened: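 SMARCA2 degradation was measured in HeLa cells whose endogenous SMARCA2 carries a carboxy-terminal HiBiT tag introduced by CRISPR/Cas9 (Promega CS302365). Cells were maintained in DMEM with FBS and penicillin-streptomycin. SMARCA2 levels were read at the end of the experiment by Nano-Glo® HiBiT lytic luminescence (Promega N3050) and analyzed in GraphPad Prism.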

[1] = HeLa, read-out: SMARC A4 Hela HiBit Dmax(%)
[2] = Hela SMARCA4-HiBiT cells, 24 hours treatment
[3] = Hela SMARCA2-HiBiT cells, 24 hours treatment
[4] = Hela SMARCA4-HiBiT cells, 24 hours treatment, read-out: SMARC A4 Hela HiBit Dmax
[5] = Hela SMARCA4-HiBiT cells, 24 hours treatment, read-out: SMARC A4 Hela HiBit Dmax(%)

Compound | DC50 (SMARCA4; [2]) | DC50 (SMARCA2; [3]) | Dmax (SMARCA4; [4]) | Dmax (SMARCA2; [3]) | other results
Cc1ncsc1-c1ccc([C@H](CCCCCN2CCC(c3ccc4c(c3)C3(CCCCC3)c3nc(=O)c5c(Br)cccc5n3-4)CC2)NC(=O)[C@@H]2C[C@@H](O)CN2C(=O)[C@@H](NC(=O)C2(F)CC2)C(C)(C)C)cc1 [Compound A4, (2S,4R)—N—((S)-6-(4-(4′-bromo-5′-oxo-5′H-spiro[cyclohexane-1,7′-indolo[1,2-a]quinazolin]-9′-yl)piperidin-1-yl)-1-(4-(4-methylthiazol-5-yl)phenyl)hexyl)-1-((S)-2-(1-fluorocyclopropane-1-carboxamido)-3,3-dimethylbutanoyl)-4-hydroxypyrrolidine-2-carboxamide] | < 100 nM | < 100 nM |  |  | Dmax (SMARCA4; [1]): > 90%; Dmax (SMARCA2; HeLa): > 90%
Cc1ncsc1-c1ccc([C@H](C)NC(=O)[C@@H]2C[C@@H](O)CN2C(=O)[C@H](C2CCN(C3CCOCC3)CC2)n2cc([C@H]3CC[C@H](CN4CCC(c5ccc6c(c5)-n5c(nc(=O)c7c(Cl)cccc75)C65CCCCC5)CC4)CC3)nn2)cc1 [Compound A112, (2S,4R)-1-((S)-2-(4-((1r,4S)-4-((4-(4′-chloro-5′-oxo-5′H-spiro[cyclohexane-1,7′-indolo[1,2-a]quinazolin]-10′-yl)piperidin-1-yl)methyl)cyclohexyl)-1H-1,2,3-triazol-1-yl)-2-(1-(tetrahydro-2H-pyran-4-yl)piperidin-4-yl)acetyl)-4-hydroxy-N—((S)-1-(4-(4-methylthiazol-5-yl)phenyl)ethyl)pyrrolidine-2-carboxamide] | 100 to 1000 nM | < 10 nM | 50 to 69% | > 90% | 
COCCOCCOCCOC[C@H](NC(=O)[C@@H]1C[C@@H](O)CN1C(=O)[C@@H](n1cc([C@H]2CC[C@H](CN3CCC(c4ccc5c(c4)-n4c(nc(=O)c6c(Cl)cccc64)C5(C)C)CC3)CC2)nn1)C(C)(C)C)c1ccc(-c2scnc2C)cc1 [Compound A150, (2S,4R)-1-((S)-2-(4-((1r,4S)-4-((4-(4-chloro-7,7-dimethyl-5-oxo-5,7-dihydroindolo[1,2-a]quinazolin-10-yl)piperidin-1-yl)methyl)cyclohexyl)-1H-1,2,3-triazol-1-yl)-3,3-dimethylbutanoyl)-4-hydroxy-N—((R)-13-(4-(4-methylthiazol-5-yl)phenyl)-2,5,8,11-tetraoxatridecan-13-yl)pyrrolidine-2-carboxamide] | > 1000 nM | < 10 nM | < 50% | > 90% | 
COCCOCCOC[C@H](NC(=O)[C@@H]1C[C@@H](O)CN1C(=O)[C@@H](n1cc([C@H]2CC[C@H](CN3CCC(c4ccc5c(c4)-n4c(nc(=O)c6c(Cl)cccc64)C5(C)C)CC3)CC2)nn1)C(C)(C)C)c1ccc(-c2scnc2C)cc1 [Compound A92] | > 1000 nM | < 10 nM | < 50% | 70 to 90% | 
Cc1ncsc1-c1ccc([C@@H](NC(=O)[C@@H]2C[C@@H](O)CN2C(=O)[C@@H](n2cc(C3CC3)nn2)C(C)(C)C)C(=O)N2CCC(c3ccc4c(c3)-n3c(nc(=O)c5c(Br)cccc53)C43CCCCC3)CC2)cc1 [Compound A135, (2S,4R)—N—((R)-2-(4-(4′-bromo-5′-oxo-5′H-spiro[cyclohexane-1,7′-indolo[1,2-a]quinazolin]-10′-yl)piperidin-1-yl)-1-(4-(4-methylthiazol-5-yl)phenyl)-2-oxoethyl)-1-((S)-2-(4-cyclopropyl-1H-1,2,3-triazol-1-yl)-3,3-dimethylbutanoyl)-4-hydroxypyrrolidine-2-carboxamide] | < 10 nM | < 10 nM | > 90% | > 90% | 
Cc1ncsc1-c1ccc([C@H](C)NC(=O)[C@@H]2C[C@@H](O)CN2C(=O)[C@H](C2CCCCC2)n2cc([C@H]3CC[C@H](CN4CCC(c5ccc6c(c5)-n5c(nc(=O)c7c(Br)cccc75)C65CCCCC5)CC4)CC3)nn2)cc1 [Compound A119, (2S,4R)-1-((S)-2-(4-((1r,4S)-4-((4-(4′-bromo-5′-oxo-5′H-spiro[cyclohexane-1,7′-indolo[1,2-a]quinazolin]-10′-yl)piperidin-1-yl)methyl)cyclohexyl)-1H-1,2,3-triazol-1-yl)-2-cyclohexylacetyl)-4-hydroxy-N—((S)-1-(4-(4-methylthiazol-5-yl)phenyl)ethyl)pyrrolidine-2-carboxamide] | 10 to 100 nM | < 10 nM | 70 to 90% | > 90% | 
Cc1ncsc1-c1ccc([C@H](CN2CCOCC2)NC(=O)[C@@H]2C[C@@H](O)CN2C(=O)[C@@H](NC(=O)C23CCC(CN4CCC(c5ccc6c(c5)-n5c(nc(=O)c7c(Br)cccc75)C65CCCCC5)CC4)(CC2)C3)C(C)(C)C)cc1 [Compound A24, (2S,4R)-1-((S)-2-(4-((4-(4′-bromo-5′-oxo-5′H-spiro[cyclohexane-1,7′-indolo[1,2-a]quinazolin]-10′-yl)piperidin-1-yl)methyl)bicyclo[2.2.1]heptane-1-carboxamido)-3,3-dimethylbutanoyl)-4-hydroxy-N—((R)-1-(4-(4-methylthiazol-5-yl)phenyl)-2-morpholinoethyl)pyrrolidine-2-carboxamide] |  |  |  |  | SMARC A4 Hela HiBit Dmax(%) (SMARCA4; [2]): B (B (70-90% degradation)); DC50 (SMARCA4): 100 to 500 nM; SMARC A2 Hela HiBit Dmax (%) (SMARCA2; [3]): A (A (>90% degradation)); DC50 (SMARCA2): < 100 nM
Cc1ncsc1-c1ccc([C@H](CN2CCOCC2)NC(=O)[C@@H]2C[C@@H](O)CN2C(=O)[C@@H](n2cc([C@H]3CC[C@H](CN4CCC(c5ccc6c(c5)-n5c(nc(=O)c7c(Cl)cccc75)C6(C)C)CC4)CC3)nn2)C(C)(C)O)cc1 [Compound A159, (2S,4R)-1-((S)-2-(4-((1r,4S)-4-((4-(4-chloro-7,7-dimethyl-5-oxo-5,7-dihydroindolo[1,2-a]quinazolin-10-yl)piperidin-1-yl)methyl)cyclohexyl)-1H-1,2,3-triazol-1-yl)-3-hydroxy-3-methylbutanoyl)-4-hydroxy-N-((R)-1-(4-(4-methylthiazol-5-yl)phenyl)-2-morpholinoethyl)pyrrolidine-2-carboxamide] | > 1000 nM | < 10 nM | 50 to 69% | > 90% | 
Cc1ncsc1-c1ccc([C@H](C)NC(=O)[C@@H]2C[C@@H](O)CN2C(=O)[C@@H](NC(=O)[C@H]2CC[C@H](CN3CCC(N4CCC(c5ccc6c(c5)C5(CCCCC5)c5nc(=O)c7c(Cl)cccc7n5-6)CC4)CC3)CC2)C(C)(C)C)cc1 [Compound A13, (2S,4R)-1-((S)-2-((1r,4S)-4-((4-(4′-chloro-5′-oxo-5′H-spiro[cyclohexane-1,7′-indolo[1,2-a]quinazolin]-9′-yl)-[1,4′-bipiperidin]-1′-yl)methyl)cyclohexane-1-carboxamido)-3,3-dimethylbutanoyl)-4-hydroxy-N—((S)-1-(4-(4-methylthiazol-5-yl)phenyl)ethyl)pyrrolidine-2-carboxamide] |  | < 100 nM |  | 70 to 90% | SMARC A4 Hela HiBit DC50(nM) (SMARCA4; [2]): No fit; Dmax (SMARCA4; [5]): < 50%
Cc1ncsc1-c1ccc([C@H](C)NC(=O)[C@@H]2C[C@@H](O)CN2C(=O)[C@@H](n2cc(CN3CCC(c4ccc5c(c4)C4(CCCCC4)c4nc(=O)c6c(Br)cccc6n4-5)CC3)nn2)C(C)(C)C)cc1 [Compound A53, (2S,4R)-1-((S)-2-(4-((4-(4′-bromo-5′-oxo-5′H-spiro[cyclohexane-1,7′-indolo[1,2-a]quinazolin]-9′-yl)piperidin-1-yl)methyl)-1H-1,2,3-triazol-1-yl)-3,3-dimethylbutanoyl)-4-hydroxy-N—((S)-1-(4-(4-methylthiazol-5-yl)phenyl)ethyl)pyrrolidine-2-carboxamide] | < 100 nM | < 100 nM |  | > 90% | Dmax (SMARCA4; [5]): > 90%
Cc1ncsc1-c1ccc([C@H](C)NC(=O)[C@@H]2C[C@@H](O)CN2C(=O)[C@@H](NC(=O)[C@H]2CC[C@H](CN3CCC(c4ccc5c(c4)C4(CCCCC4)c4nc(=O)c6c(Cl)cccc6n4-5)CC3)CC2)C(C)(C)C)cc1 [Compound A11, (2S,4R)-1-((S)-2-((1r,4S)-4-((4-(4′-chloro-5′-oxo-5′H-spiro[cyclohexane-1,7′-indolo[1,2-a]quinazolin]-9′-yl)piperidin-1-yl)methyl)cyclohexane-1-carboxamido)-3,3-dimethylbutanoyl)-4-hydroxy-N—((S)-1-(4-(4-methylthiazol-5-yl)phenyl)ethyl)pyrrolidine-2-carboxamide] |  | < 100 nM |  |  | Dmax (SMARCA4; [1]): < 50%; SMARC A4 Hela HiBit DC50(nM) (SMARCA4; [2]): No fit; Dmax (SMARCA2; HeLa): 70 to 90%
